These results are taken from patent US20230049619A1, “SIGMA-1 RECEPTOR LIGANDS AND USES THEREOF” (UNIVERSITE DE STRASBOURG, priority 2019, published 2023).

Each structure is given as a SMILES string. Counter-ions that a name gives are not always drawn.

For the first assay, the target named is T1, sigma-1 receptor (Homo sapiens, UniProt Q99720).
T1 construct: incubing Jurkat cell membranes ([…] protein per tube) with [^3H](+)-pentazocine; endogenous in cells; host or cells: Jurkat cell membranes
T1 sequence (Q99720 whole entry): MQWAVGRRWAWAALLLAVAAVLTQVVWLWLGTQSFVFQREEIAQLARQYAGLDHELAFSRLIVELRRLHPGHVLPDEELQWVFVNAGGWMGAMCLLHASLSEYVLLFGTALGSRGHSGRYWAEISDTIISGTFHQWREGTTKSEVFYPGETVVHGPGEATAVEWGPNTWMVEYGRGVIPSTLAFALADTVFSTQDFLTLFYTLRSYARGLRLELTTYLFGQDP
As to the kind of experiment: sigma-1 receptor binding assay ([3H](+)-pentazocine displacement, Jurkat cell membranes). Conditions: tested compound 10 nM, [3H](+)-pentazocine 15 nM, 37° C., 2 hours. Here is the method:
The sigma-1 receptor binding assays were performed according to Ganapathy et al. (J Pharmacol Exp Ther 28:251-60, 1999). The sigma-1 receptor binding assay was carried out by incubing Jurkat cell membranes ([…] protein per tube) with [^3H](+)-pentazocine a selective sigma-1 radiotracer (15 nM) and a range of concentration of tested compounds, at 37° C. for 2 hours in 5 mM tris/HCl buffer (pH=7.4). The inhibition of [^3H](+)-pentazocine binding assay is mainly used to determine the inhibition constant (Ki) of potential sigma-1 receptor ligands. These assays are performed with a single concentration of [^3H](+)-pentazocine at a concentration near its KD and increasing concentrations of non-radioactive ligands.
Broadly, the inhibition is the drop in the measured response relative to a control, in per cent. Higher therefore signals a strong effect. `O=c1c(-c2ccccc2)cncn1CC1CCN(Cc2ccccc2)CC1` [cpd 45, 3-((1-benzylpiperidin-4-yl)methyl)-5-phenylpyrimidin-4(3H)-one] displayed an inhibition at 0.01 µM of 75.7%.

In turn, `O=c1c(-c2ccccc2)ccnn1C1CCN(Cc2ccccc2)CC1` [cpd 1, 2-(1-benzylpiperidin-4-yl)-4-phenylpyridazin-3(2H)-one hydrochloride] gave an inhibition at 0.01 µM of 59.9%.

In the case of `Cl.O=c1c(-c2ccccc2)ccnn1C1CCN(CC2CCCC2)CC1` [cpd 5, 2-[1-(cyclopentylmethyl)piperidin-4-yl]-4-phenyl-2,3-dihydropyridazin-3-one hydro-chloride], the “sigma-1 receptor % inhibition 10 nM” value was 60.7%.

Molecule `O=c1c(-c2ccccc2)ccnn1CC1CCN(Cc2ccncc2)CC1` [cpd 14, 4-phenyl-2-((1-(pyridin-4-ylmethyl)piperidin-4-yl)methyl)pyridazin-3(2H)-one hydrochloride] showed an inhibition at 0.01 µM of 16.4%.

`O=c1cc(-c2ccccc2)cnn1CC1CCN(Cc2ccccc2)CC1` [cpd 8, 2-((1-benzylpiperidin-4-yl)methyl)-5-phenylpyridazin-3(2H)-one hydrochloride] yielded an inhibition at 0.01 µM of 31.5%.

Molecule `CCCN1CCC(Cn2nccc(-c3ccccc3)c2=O)CC1` [cpd 11, 4-phenyl-2-((1-propylpiperidin-4-yl)methyl)pyridazin-3(2H)-one hydrochloride] returned an inhibition at 0.01 µM of 3.9%.

The molecule `O=c1c(-c2ccccc2)ccnn1CC1CCN(CCO)CC1` [cpd 20, 2-((1-(2-hydroxyethyl)piperidin-4-yl)methyl)-4-phenylpyridazin-3(2H)-one hydrochloride] displayed an inhibition at 0.01 µM of 18.9%.

Molecule `O=c1c(-c2ccccc2)ccnn1CC1CCCN(Cc2ccccc2)C1` (stereo not drawn) [cpd 9, 2-[(1-benzylpiperidin-3-yl)methyl]-4-phenyl-2,3-dihydropyridazin-3-one hydrochloride] displayed an inhibition at 0.01 µM of 38.8%.

In turn, `O=c1cc(-c2ccccc2)cnn1CCC1CCN(Cc2ccccc2)CC1` [cpd 27, 2-(2-(1-benzylpiperidin-4-yl)ethyl)-5-phenylpyridazin-3(2H)-one hydrochloride] gave an inhibition at 0.01 µM of 61.7%.

`O=c1c(N2CCc3ccccc3C2)ccnn1CC1CCN(Cc2ccccc2)CC1` [cpd 42, 2-((1-benzylpiperidin-4-yl)methyl)-4-(3,4-dihydroisoquinolin-2(1H)-yl)pyridazin-3(2H)-one hydrochloride] came in with an inhibition at 0.01 µM of 25.4%.

`O=c1c(-c2ccc(F)cc2)ccnn1CC1CCN(Cc2ccccc2)CC1` [cpd 35, 2-((1-benzylpiperidin-4-yl)methyl)-4-(4-fluorophenyl)pyridazin-3(2H)-one hydrochloride] came in with an inhibition at 0.01 µM of 44.6%.

`O=c1c(N2CCN(c3ccccc3)CC2)ccnn1CC1CCN(Cc2ccccc2)CC1` [cpd 41, 2-((1-benzylpiperidin-4-yl)methyl)-4-(4-phenylpiperazin-1-yl)pyridazin-3(2H)-one hydrochloride] returned an inhibition at 0.01 µM of 5.2%.

As to `O=c1c(-c2ccccc2)ccnn1C1CCN(CCc2ccccc2)CC1` [cpd 3, 4-phenyl-2-[1-(2-phenylethyl)piperidin-4-yl]-2,3-dihydropyridazin-3-one hydrochloride], the inhibition at 0.01 µM amounted to 41.9%.

`O=c1c(-c2ccccc2)ccnn1CCC1CCN(Cc2ccccc2)CC1` [cpd 26, 2-(2-(1-benzylpiperidin-4-yl)ethyl)-4-phenylpyridazin-3(2H)-one hydrochloride] registered an inhibition at 0.01 µM of 80.9%.

The same assay, now with this note: tested compound 100 nM, [3H](+)-pentazocine 15 nM, 37° C., 2 hours.
With `O=c1c(-c2ccccc2)ccnn1C1CCN(Cc2ccccc2)CC1` [cpd 1, 2-(1-benzylpiperidin-4-yl)-4-phenylpyridazin-3(2H)-one hydrochloride], the inhibition at 0.1 µM turned out to be 97.1%.

In turn, `COc1ccc(-c2ccnn(C3CCN(Cc4ccccc4)CC3)c2=O)cc1` [cpd 30, 2-(1-benzylpiperidin-4-yl)-4-(4-methoxyphenyl)pyridazin-3(2H)-one hydrochloride] yielded an inhibition at 0.1 µM of 75.8%.

Regarding `O=c1c(-c2ccc(C(F)(F)F)cc2)ccnn1C1CCN(Cc2ccccc2)CC1` [cpd 31, 2-(1-benzylpiperidin-4-yl)-4-[4-(trifluoromethyl)phenyl]-2,3-dihydropyridazin-3-one hydro chloride], the inhibition at 0.1 µM worked out at 80%.

Consider `O=c1c(-c2ccccc2)ccnn1CCC1CCN(Cc2ccccc2)CC1` [cpd 26, 2-(2-(1-benzylpiperidin-4-yl)ethyl)-4-phenylpyridazin-3(2H)-one hydrochloride], for which at 0.1 µM the inhibition was 95%.
